What is called EC50 is the concentration needed to bring the measured effect to its halfway point. Higher therefore signals weaker potency.

One assay addresses T1, human CYP11B2 (Homo sapiens, UniProt P19099).
T1 construct: expressed in transfected cells
T1 sequence (P19099 25-503): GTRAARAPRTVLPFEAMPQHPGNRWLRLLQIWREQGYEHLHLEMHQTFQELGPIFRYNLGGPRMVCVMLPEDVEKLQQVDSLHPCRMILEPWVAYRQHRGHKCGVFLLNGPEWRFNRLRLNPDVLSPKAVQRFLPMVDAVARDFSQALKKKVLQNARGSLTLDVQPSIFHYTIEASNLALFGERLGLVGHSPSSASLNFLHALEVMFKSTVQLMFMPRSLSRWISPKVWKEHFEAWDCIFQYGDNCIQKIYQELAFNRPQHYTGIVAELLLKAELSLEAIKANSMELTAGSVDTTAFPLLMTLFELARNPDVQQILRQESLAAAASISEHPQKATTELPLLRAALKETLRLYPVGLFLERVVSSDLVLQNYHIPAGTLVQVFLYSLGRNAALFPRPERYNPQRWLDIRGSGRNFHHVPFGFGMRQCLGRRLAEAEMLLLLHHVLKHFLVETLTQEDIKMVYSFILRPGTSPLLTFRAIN
In words: G-402 cellular enzyme assay, human CYP11B2 (aldosterone release, HTRF). Type of assay: cell-based. The note with it: G-402 cells, 1 μM Deoxycorticosterone. In outline:
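G-402 cells stably expressing human CYP11B1 or CYP11B2 incubated 16 h in DMEM/F12 with 2.5% charcoal-treated FCS, compound, and 1 μM 11-deoxycortisol (B1) or 1 μM deoxycorticosterone (B2). Cortisol (B1) or aldosterone (B2) in supernatant measured by HTRF; EC50 from 4-parameter MMF fit.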
(Time-resolved FRET reads energy transfer from a long-lived donor to a nearby acceptor.)

For a further assay, the target named is T2, human CYP11B1 (Homo sapiens, UniProt P15538).
T2 construct: expressed in transfected cells
T2 sequence (P15538 25-503): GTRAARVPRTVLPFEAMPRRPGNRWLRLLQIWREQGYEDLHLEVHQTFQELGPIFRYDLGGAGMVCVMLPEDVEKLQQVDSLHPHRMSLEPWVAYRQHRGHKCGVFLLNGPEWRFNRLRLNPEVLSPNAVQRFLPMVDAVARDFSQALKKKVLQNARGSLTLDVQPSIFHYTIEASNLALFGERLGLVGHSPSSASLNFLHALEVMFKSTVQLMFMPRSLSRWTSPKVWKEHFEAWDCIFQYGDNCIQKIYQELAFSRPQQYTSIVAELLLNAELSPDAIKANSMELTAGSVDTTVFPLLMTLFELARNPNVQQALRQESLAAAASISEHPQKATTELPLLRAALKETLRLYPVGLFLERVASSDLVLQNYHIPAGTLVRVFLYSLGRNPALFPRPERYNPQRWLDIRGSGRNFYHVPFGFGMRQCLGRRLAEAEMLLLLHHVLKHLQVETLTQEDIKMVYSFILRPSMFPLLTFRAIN
The assay is described as follows: G-402 cellular enzyme assay, human CYP11B1 (cortisol release, HTRF). Type of assay: cell-based. The note with it: G-402 cells, 1 μM Deoxycortisol. From the text: Herein we identified the use of the G-402 cell line as a host cell to ectopically express (transiently or stably) enzymes of the CYP11 family. Specifically we developed stable G-402 cells expressing ectopically human CYP11B1, human CYP11B2, human CYP11A1, cynmolgus CYP11B1 or cynomolgus CYP11B2 enzyme activity. Importantly the identified cell line G-402 expresses co-factors (adrenodoxin and adrenodoxin reductase) important for the activity of the CYP11 family and no relevant enzyme activity of the CYP11 family (in comparison to H295R cells) was detected in these cells. Therefore the G-402 cell line is uniquely suited as a host cell for the ectopic expression of enzymes from the CYP11 family.
G-402 cells can be obtained from ATCC(CRL-1440) and were originally derived from a renal leiomyoblastoma.
The expression plasmids contain the ORF for either human/cyno CYP11B1 or CYP11B2 under the control of a suitable promoter (CMV-promoter) and a suitable resistance marker (neomycin). Using standard techniques the expression plasmid is transfected into G-402 cells and these cells are then selected for expressing the given resistance markers. Individual cell-clones are then selected and assessed for displaying the desired enzymatic activity using 11-Deoxycorticosterone (Cyp11B2) or 11-Deoxycortisol (Cyp11B1) as a substrate.
G-402 cells expressing CYP11 constructs were established as described above and maintained in McCoy's 5a Medium Modified, ATCC Catalog No. 30-2007 containing 10% FCS and 400 μg/ml G418 (Geneticin) at 37° C. under an atmosphere of 5% CO2/95% air.
Cellular enzyme assays were performed in DMEM/F12 medium containing 2.5% charcoal treated FCS and appropriate concentration of substrate (0.3-10 uM 11-Deoxycorticosterone, 11-Deoxycortisol or Corticosterone). For assaying enzymatic activity, cells were plated onto 96 well plates and incubated for 16 h. An aliquot of the supernatant is then transferred and analyzed for the concentration of the expected product (Aldosterone for CYP11B2; Cortisol for CYP11B1). The concentrations of these steroids can be determined using HTRF assays from CisBio analyzing either Aldosterone or Cortisol.
Inhibition of the release of produced steroids can be used as a measure of the respective enzyme inhibition by test compounds added during the cellular enzyme assay. The dose dependent inhibition of enzymatic activity by a compound is calculated by means of plotting added inhibitor concentrations (x-axes) vs. measured steroid/product level (y-axes). The inhibition is then calculated by fitting the following 4-parameter sigmoidal function (Morgan-Mercer-Flodin (MMF) model) to the raw data points using the least squares method:
[formula] wherein, A is the maximum y value, B is the EC50 factor determined using XLFit, C is the minimum y value and D is the slope value.
EC50 values for compounds claimed herein were tested with the G402-based assay system described. Cyp11B2 enzyme activity was tested in presence of 1 μM Deoxycorticosterone and variable amounts of inhibitors; Cyp11B1 enzyme activity was tested in presence of 1 μM Deoxycortisol and variable amounts of inhibitors.

Turning to `O=C1c2ccc(Cl)cc2CCN1c1cncc(-c2ccc(F)c(F)c2)c1` [Example 232, 6-Chloro-2-[5-(3,4-difluoro-phenyl)-pyridin-3-yl]-3,4-dihydro-2H-isoquinolin-1-one], the EC50 at human CYP11B2 worked out at 26.6 nM; at human CYP11B1 it was 1350 nM.

As for `O=C1c2ccc(Cl)cc2CCN1c1cncc(Cl)c1` [Example 4, 6-Chloro-2-(5-chloro-pyridin-3-yl)-3,4-dihydro-2H-isoquinolin-1-one], the results for the 50% effective concentration (EC50) on human CYP11B2 and on human CYP11B1 were 67.1 nM and 1240 nM, respectively.

Turning to `Cn1ncc(C#N)c1-c1cncc(N2CCc3cc(Cl)ccc3C2=O)c1` [Example 246, 5-[5-(6-Chloro-1-oxo-3,4-dihydro-1H-isoquinolin-2-yl)-pyridin-3-yl]-1-methyl-1H-pyrazole-4-carbonitrile], the EC50 at human CYP11B2 amounted to 102 nM; on human CYP11B1, 546 nM.

On to `CC1(C)c2cc(F)ccc2C(=O)N1c1cncc(CNS(C)(=O)=O)c1` [Example 403, N-[5-(6-Fluoro-1,1-dimethyl-3-oxo-1,3-dihydro-isoindol-2-yl)-pyridin-3-ylmethyl]-methane-sulfonamide], for which the results for the EC50 on human CYP11B2 and on human CYP11B1 were 31.7 nM and 1930 nM, respectively.

Turning to `CNC(C)c1cncc(N2CCc3cc(Cl)ccc3C2=O)c1` (stereo not shown) [Example 265, 6-Chloro-2-[5-(1-methylamino-ethyl)-pyridin-3-yl]-3,4-dihydro-2H-isoquinolin-1-one], the EC50 on human CYP11B2 amounted to 437 nM; at human CYP11B1 it was 5020 nM.

With `CCC(=O)NC1CCCc2c1cncc2N1CCc2cc(Cl)ccc2C1=O` (single isomer, unassigned) [Example 329, N-((S or R)-6-Chloro-1-oxo-3,4,5′,6′,7′,8′-hexahydro-1H-[2,4′]biisoquinolinyl-8′-yl)-propionamide], the EC50 on human CYP11B2 turned out to be 6020 nM; at human CYP11B1, 12000 nM.

Turning to `CS(=O)(=O)NC1CCc2c1cncc2N1CCc2cc(Cl)ccc2C1=O` (single isomer, unassigned) [Example 331, N-[(R or S)-4-(6-Chloro-1-oxo-3,4-dihydro-1H-isoquinolin-2-yl)-6,7-dihydro-5H-[2]pyrindin-7-yl]-methanesulfonamide], the EC50 at human CYP11B2 turned out to be 4350 nM; on human CYP11B1, 35100 nM.

In the case of `CC1(C)c2cc(Cl)ccc2C(=O)N1c1cnccc1Cl` [Example 285, 5-Chloro-2-(4-chloro-pyridin-3-yl)-3,3-dimethyl-2,3-dihydro-isoindol-1-one], the results for the EC50 on human CYP11B2 and on human CYP11B1 were 7.6 nM and 356 nM, respectively.

For the compound `O=C1c2ccc(Cl)cc2CCN1c1cncc(N2CCOCC2)c1` [Example 224, 6-Chloro-2-(5-morpholin-4-yl-pyridin-3-yl)-3,4-dihydro-2H-isoquinolin-1-one], the results for the EC50 on human CYP11B2 and on human CYP11B1 were 37.2 nM and 293 nM, respectively.

For the compound `CCS(=O)(=O)NC1CCCc2c1cncc2N1Cc2cc(Cl)ccc2C1=O` (single isomer, unassigned; (+)) [Example 316, (+)-Ethanesulfonic acid [(R or S)-4-(5-chloro-1-oxo-1,3-dihydro-isoindol-2-yl)-5,6,7,8-tetrahydro-isoquinolin-8-yl]-amide], the results for the EC50 at human CYP11B2 and on human CYP11B1 were 40.2 nM and 1830 nM, respectively.

As for `O=C1c2ccc(Cl)cc2CCN1c1cncc(CN2CC[C@H](O)C2)c1` [Example 148, 6-Chloro-2-[5-((S)-3-hydroxy-pyrrolidin-1-ylmethyl)-pyridin-3-yl]-3,4-dihydro-2H-isoquinolin-1-one], the EC50 came to 45.1 nM at human CYP11B2 and 139 nM on human CYP11B1.

For the compound `CC[C@H]1c2cc(Cl)ccc2C(=O)N1c1cncc2c1CCC[C@H]2NC(C)=O` (single isomer, unassigned) [Example 357, N-[(R or S)-4-((S or R)-5-Chloro-3-ethyl-1-oxo-1,3-dihydro-isoindol-2-yl)-5,6,7,8-tetrahydro-isoquinolin-8-yl]-acetamide], the concentration giving a half-maximal response (EC50) on human CYP11B2 stood at 98.2 nM; at human CYP11B1, 3220 nM.

On to `COc1cncc(N2CCc3c(ccc(Cl)c3F)C2=O)c1` [Example 99, 6-Chloro-5-fluoro-2-(5-methoxy-pyridin-3-yl)-3,4-dihydro-2H-isoquinolin-1-one], for which the EC50 is 901 nM on human CYP11B2 and 7270 nM on human CYP11B1.

On to `CC1(C)c2cc(Cl)ccc2C(=O)N1c1cncc(Cn2ccc(N)n2)c1` [Example 380, 2-[5-(3-Amino-pyrazol-1-ylmethyl)-pyridin-3-yl]-5-chloro-3,3-dimethyl-2,3-dihydro-isoindol-1-one], for which the EC50 turned out to be 36.6 nM on human CYP11B2 and 2420 nM on human CYP11B1.

Take `CCC1c2ccc(Cl)cc2C(=O)N1c1cncc(CNS(C)(=O)=O)c1` (single isomer, unassigned) [Example 405, N-[5-((S or R)-5-Chloro-1-ethyl-3-oxo-1,3-dihydro-isoindol-2-yl)-pyridin-3-ylmethyl]-methane-sulfonamide]: the EC50 on human CYP11B2 worked out at 546 nM; at human CYP11B1, 35200 nM.

Consider `CC(=O)NCc1cncc(N2C(=O)c3ccc(Cl)cc3C2(C)C)c1` [Example 400, N-[5-(6-Chloro-1,1-dimethyl-3-oxo-1,3-dihydro-isoindol-2-yl)-pyridin-3-ylmethyl]-acetamide], for which the EC50 on human CYP11B2 turned out to be 58.9 nM; on human CYP11B1 it was 2740 nM.

For `CC(=O)NC1CCc2c1cncc2N1CCc2cc(Cl)ccc2C1=O` (single isomer, unassigned) [Example 333, N-[(S or R)-4-(6-Chloro-1-oxo-3,4-dihydro-1H-isoquinolin-2-yl)-6,7-dihydro-5H-[2]pyrindin-7-yl]-acetamide], the values for the EC50 at human CYP11B2 and at human CYP11B1 were 95.8 nM and 5240 nM, respectively.

Regarding `Cn1cnc(CNc2cncc(N3CCc4cc(Cl)ccc4C3=O)c2)c1` [Example 228, 6-Chloro-2-{5-[(1-methyl-1H-imidazol-4-ylmethyl)-amino]-pyridin-3-yl}-3,4-dihydro-2H-isoquinolin-1-one], the EC50 was 263 nM on human CYP11B2 and 12400 nM on human CYP11B1.

In the case of `O=C1c2ccc(Cl)cc2CCN1c1cncc(CNC2COC2)c1` [Example 164, 6-Chloro-2-[5-(oxetan-3-ylaminomethyl)-pyridin-3-yl]-3,4-dihydro-2H-isoquinolin-1-one], the EC50 came out at 141 nM at human CYP11B2 and 862 nM at human CYP11B1.

Regarding `O=C1c2ccc(Cl)cc2CCN1c1cncc(NCC(F)(F)F)c1` [Example 223, 6-Chloro-2-[5-(2,2,2-trifluoro-ethylamino)-pyridin-3-yl]-3,4-dihydro-2H-isoquinolin-1-one], the EC50 came out at 116 nM at human CYP11B2 and 1420 nM at human CYP11B1.
